Where two headings read alike, the source gives them in different places.
Experiments:
[1] = system: green peach aphid (Myzus persicae); assay: Myzus persicae test (MYZUPE); format: in vivo; details: for pest or weed control at 4 ppm: 4 ppm a.i. alone
Description: Myzus persicae Test (MYZUPE)
(§1) Solvent: 7 parts by weight of dimethylformamide
(§2) Emulsifier: 2 parts by weight of alkylaryl polyglycol ether
(§3) To prepare an appropriate active ingredient formulation, 1 part by weight of active ingredient is mixed with the given amounts of solvent and emulsifier, and the concentrate is diluted with emulsifier-containing water to the desired concentration. In the case that addition of ammonium salts, penetrants, or ammonium salts and penetrants is required, they are pippetted in each case into the finished preparation solution after dilution in a concentration of 1000 ppm each.
Pepper plants (Capsicum annuum) highly infested by the green peach aphid (Myzus persicaei) are treated by spraying with the active ingredient formulation in the desired concentration.
After the desired time, the kill rate in % is determined. 100% means that all animals have been killed; 0% means that no animals have been killed.

[2] = system: cotton aphid (Aphis gossypii); assay: Aphis gossypii test (APHIGO spray treatment); format: in vivo; details: for pest or weed control at 4 ppm: 4 ppm a.i. alone
Description: Aphis gossypii Test (APHIGO Spray Treatment)
as §1, §2
as §3, with “a ready-to-use” for “an appropriate”, “specified” for “given”, “emulsifier” for “emulsifier,”, “pipetted” for “pippetted”
Cotton leaves (Gossypium hirsutum) highly infested by the cotton aphid (Aphis gossypii) are sprayed with an active ingredient formulation with the desired concentration.
After the desired period, the kill rate in % is determined. 100% means that all aphids have been killed; 0% means that no aphids have been killed.

[3] = 0.8 ppm a.i. + AMS and RME 1000 ppm each, pepper plants sprayed, 6 days
[4] = 0.8 ppm a.i. + ammonium sulphate 1000 ppm, pepper plants sprayed, 6 days
[5] = 0.8 ppm a.i. + rapeseed oil methyl ester 1000 ppm, pepper plants sprayed, 6 days
[6] = 4 ppm a.i. + AMS and RME 1000 ppm each, pepper plants sprayed, 6 days
[7] = 4 ppm a.i. + ammonium sulphate 1000 ppm, pepper plants sprayed, 6 days
[8] = 4 ppm a.i. + rapeseed oil methyl ester 1000 ppm, pepper plants sprayed, 6 days
[9] = Myzus persicae, 144 h, 0.8 ppm a.i. alone, pepper plants sprayed, 6 days, read-out: Kill in % after 6 days a.i.
[10] = Myzus persicae, 144 h, pepper plants sprayed, 6 days, read-out: Kill in % after 6 days a.i.
[11] = 0.8 ppm a.i. + AMS and RME 1000 ppm each, cotton leaves sprayed, 6 days
[12] = 0.8 ppm a.i. + ammonium sulphate 1000 ppm, cotton leaves sprayed, 6 days
[13] = 0.8 ppm a.i. + rapeseed oil methyl ester 1000 ppm, cotton leaves sprayed, 6 days
[14] = Aphis gossypii, 144 h, 0.8 ppm a.i. alone, cotton leaves sprayed, 6 days, read-out: Kill in % after 6 days a.i.
[15] = 4 ppm a.i. + AMS and RME 1000 ppm each, cotton leaves sprayed, 6 days
[16] = 4 ppm a.i. + ammonium sulphate 1000 ppm, cotton leaves sprayed, 6 days
[17] = 4 ppm a.i. + rapeseed oil methyl ester 1000 ppm, cotton leaves sprayed, 6 days
[18] = Aphis gossypii, 144 h, cotton leaves sprayed, 6 days, read-out: Kill in % after 6 days a.i.

O=C1C=C(N(CCF)Cc2ccc(Br)nc2)CO1 [Compound I-1, 4-{[(6-bromopyrid-3-yl)methyl](2-fluoroethyl)amino}furan-2(5H)-one]
Kill in % after 6 days +AMS + RME [1, 3]: 35% | Kill in % after 6 days +AMS [1, 4]: 0% | Kill in % after 6 days +RME [1, 5]: 25% | Kill in % after 6 days +AMS + RME [1, 6]: 99% | Kill in % after 6 days +AMS [1, 7]: 95% | Kill in % after 6 days +RME [1, 8]: 99% | pest or weed control at 0.8 ppm [1, 9]: 0% | pest or weed control at 4 ppm [1, 10]: 35% | Kill in % after 6 days +AMS + RME [2, 11]: 95% | Kill in % after 6 days +AMS [2, 12]: 20% | Kill in % after 6 days +RME [2, 13]: 50% | pest or weed control at 0.8 ppm [2, 14]: 25%

O=C1C=C(N(Cc2ccc(Br)nc2)CC(F)F)CO1 [Compound I-2]
Kill in % after 6 days +AMS + RME [1, 3]: 30% | Kill in % after 6 days +AMS [1, 4]: 50% | Kill in % after 6 days +RME [1, 5]: 98% | pest or weed control at 0.8 ppm [1, 9]: 0% | Kill in % after 6 days +AMS + RME [2, 11]: 15% | Kill in % after 6 days +AMS [2, 12]: 98% | Kill in % after 6 days +RME [2, 13]: 90% | pest or weed control at 0.8 ppm [2, 14]: 15%

O=C1C=C(N(Cc2ccc(F)nc2)CC(F)F)CO1 [Compound I-3, 4-{[(6-fluoropyrid-3-yl)methyl](2,2-difluoroethyl)amino}furan-2(5H)-one]
Kill in % after 6 days +AMS + RME [1, 6]: 100% | Kill in % after 6 days +AMS [1, 7]: 80% | Kill in % after 6 days +RME [1, 8]: 85% | pest or weed control at 4 ppm [1, 10]: 0% | Kill in % after 6 days +AMS + RME [2, 11]: 90% | Kill in % after 6 days +AMS [2, 12]: 15% | Kill in % after 6 days +RME [2, 13]: 35% | pest or weed control at 0.8 ppm [2, 14]: 0%

O=C1C=C(N(CCF)Cc2cnc(Cl)s2)CO1 [Compound I-4, 4-{[(2-chloro-1,3-thiazol-5-yl)methyl](2-fluoroethyl)amino}furan-2(5H)-one]
Kill in % after 6 days +AMS + RME [1, 6]: 100% | Kill in % after 6 days +AMS [1, 7]: 80% | Kill in % after 6 days +RME [1, 8]: 90% | pest or weed control at 4 ppm [1, 10]: 15% | Kill in % after 6 days +AMS + RME [2, 15]: 85% | Kill in % after 6 days +AMS [2, 16]: 20% | Kill in % after 6 days +RME [2, 17]: 65% | pest or weed control at 4 ppm [2, 18]: 20%

O=C1C=C(N(CCF)Cc2ccc(Cl)nc2)CO1 [Compound I-6, 4-{[(6-chloropyrid-3-yl)methyl](2-fluoroethyl)amino}furan-2(5H)-one]
Kill in % after 6 days +AMS + RME [1, 6]: 100% | Kill in % after 6 days +AMS [1, 7]: 85% | Kill in % after 6 days +RME [1, 8]: 100% | pest or weed control at 4 ppm [1, 10]: 60% | Kill in % after 6 days +AMS + RME ([2]; 0.16 ppm a.i. + AMS and RME 1000 ppm each, cotton leaves sprayed, 6 days): 40% | Kill in % after 6 days +AMS ([2]; 0.16 ppm a.i. + ammonium sulphate 1000 ppm, cotton leaves sprayed, 6 days): 0% | Kill in % after 6 days +RME ([2]; 0.16 ppm a.i. + rapeseed oil methyl ester 1000 ppm, cotton leaves sprayed, 6 days): 25% | Kill in % after 6 days +AMS + RME [2, 11]: 70% | Kill in % after 6 days +AMS [2, 12]: 55% | Kill in % after 6 days +RME [2, 13]: 80% | pest or weed control at 0.16 ppm ([2]; Aphis gossypii, 144 h, 0.16 ppm a.i. alone, cotton leaves sprayed, 6 days, read-out: Kill in % after 6 days a.i.): 0% | pest or weed control at 0.8 ppm [2, 14]: 45%

O=C1C=C(N(Cc2ccc(Cl)nc2)CC(F)F)CO1 [Compound I-7, 4-{[(6-chloropyrid-3-yl)methyl](2,2-difluoroethyl)amino}furan-2(5H)-one]
Kill in % after 6 days +AMS + RME [1, 3]: 90% | Kill in % after 6 days +AMS [1, 4]: 45% | Kill in % after 6 days +RME [1, 5]: 80% | pest or weed control at 0.8 ppm ([1]; Myzus persicae, 144 h, read-out: Kill in % after 6 days a.i.): 55% | Kill in % after 6 days +AMS + RME [2, 11]: 80% | Kill in % after 6 days +AMS [2, 12]: 60% | Kill in % after 6 days +RME [2, 13]: 70% | pest or weed control at 0.8 ppm ([2]; Aphis gossypii, 144 h, read-out: Kill in % after 6 days a.i.): 60%

CN(Cc1cnc(Cl)c(F)c1)C1=CC(=O)OC1 [Compound I-8, 4-{[(6-chloro-5-fluoropyrid-3-yl)methyl](methyl)amino}furan-2(5H)-one]
Kill in % after 6 days +AMS + RME [1, 3]: 95% | Kill in % after 6 days +AMS [1, 4]: 50% | Kill in % after 6 days +RME [1, 5]: 95% | pest or weed control at 0.8 ppm [1, 9]: 40% | Kill in % after 6 days +AMS + RME [2, 11]: 75% | Kill in % after 6 days +AMS [2, 12]: 30% | Kill in % after 6 days +RME [2, 13]: 60% | pest or weed control at 0.8 ppm [2, 14]: 20%

O=C1C=C(N(Cc2cnc(Cl)c(Cl)c2)C2CC2)CO1 [Compound I-9, 4-{[(5,6-dichloropyrid-3-yl)methyl](cyclopropyl)amino}furan-2(5H)-one]
Kill in % after 6 days +AMS + RME [1, 6]: 70% | Kill in % after 6 days +AMS [1, 7]: 15% | Kill in % after 6 days +RME [1, 8]: 60% | pest or weed control at 4 ppm [1, 10]: 0% | Kill in % after 6 days +AMS + RME [2, 11]: 30% | Kill in % after 6 days +AMS [2, 12]: 0% | Kill in % after 6 days +RME [2, 13]: 15% | pest or weed control at 0.8 ppm [2, 14]: 0%

CN(Cc1cnc(Cl)c(Cl)c1)C1=CC(=O)OC1 [Compound I-10, 4-{[(5,6-dichloropyrid-3-yl)methyl](methyl)amino}furan-2(5H)-one]
Kill in % after 6 days +AMS + RME [1, 3]: 99% | Kill in % after 6 days +AMS [1, 4]: 0% | Kill in % after 6 days +RME [1, 5]: 90% | pest or weed control at 0.8 ppm [1, 9]: 0% | Kill in % after 6 days +AMS + RME [2, 15]: 99% | Kill in % after 6 days +AMS [2, 16]: 99% | Kill in % after 6 days +RME [2, 17]: 85% | pest or weed control at 4 ppm [2, 18]: 65%

CN(Cc1cnc(Br)c(F)c1)C1=CC(=O)OC1 [Compound I-11, 4-{[(6-bromo-5-fluoropyrid-3-yl)methyl](methyl)amino}furan-2(5H)-one]
Kill in % after 6 days +AMS + RME ([1]; 0.16 ppm a.i. + AMS and RME 1000 ppm each, pepper plants sprayed, 6 days): 90% | Kill in % after 6 days +AMS ([1]; 0.16 ppm a.i. + ammonium sulphate 1000 ppm, pepper plants sprayed, 6 days): 0% | Kill in % after 6 days +RME ([1]; 0.16 ppm a.i. + rapeseed oil methyl ester 1000 ppm, pepper plants sprayed, 6 days): 0% | Kill in % after 6 days +AMS + RME [1, 3]: 99% | Kill in % after 6 days +AMS [1, 4]: 95% | Kill in % after 6 days +RME [1, 5]: 99% | pest or weed control at 0.16 ppm ([1]; Myzus persicae, 144 h, 0.16 ppm a.i. alone, pepper plants sprayed, 6 days, read-out: Kill in % after 6 days a.i.): 0% | pest or weed control at 0.8 ppm [1, 9]: 85% | Kill in % after 6 days +AMS + RME [2, 11]: 99% | Kill in % after 6 days +AMS [2, 12]: 55% | Kill in % after 6 days +RME [2, 13]: 95% | pest or weed control at 0.8 ppm [2, 14]: 15%

O=C1C=C(N(Cc2cnc(Br)c(F)c2)C2CC2)CO1 [Compound I-12, 4-{[(6-bromo-5-fluoropyrid-3-yl)methyl](cyclopropyl)amino}furan-2(5H)-one]
Kill in % after 6 days +AMS + RME [1, 3]: 45% | Kill in % after 6 days +AMS [1, 4]: 0% | Kill in % after 6 days +RME [1, 5]: 10% | Kill in % after 6 days +AMS + RME [1, 6]: 95% | Kill in % after 6 days +AMS [1, 7]: 95% | Kill in % after 6 days +RME [1, 8]: 100% | pest or weed control at 0.8 ppm [1, 9]: 5% | pest or weed control at 4 ppm [1, 10]: 85% | Kill in % after 6 days +AMS + RME [2, 11]: 25% | Kill in % after 6 days +AMS [2, 12]: 5% | Kill in % after 6 days +RME [2, 13]: 10% | Kill in % after 6 days +AMS + RME [2, 15]: 75% | Kill in % after 6 days +AMS [2, 16]: 80% | Kill in % after 6 days +RME [2, 17]: 85% | pest or weed control at 0.8 ppm [2, 14]: 0% | pest or weed control at 4 ppm [2, 18]: 55%

O=C1C=C(N(Cc2cnc(Cl)c(F)c2)C2CC2)CO1 [Compound I-13, 4-{[(6-chloro-5-fluoropyrid-3-yl)methyl](cyclopropyl)amino}furan-2(5H)-one]
Kill in % after 6 days +AMS + RME [1, 3]: 90% | Kill in % after 6 days +AMS [1, 4]: 5% | Kill in % after 6 days +RME [1, 5]: 35% | pest or weed control at 0.8 ppm [1, 9]: 5% | Kill in % after 6 days +AMS + RME [2, 11]: 20% | Kill in % after 6 days +AMS [2, 12]: 5% | Kill in % after 6 days +RME [2, 13]: 5% | Kill in % after 6 days +AMS + RME [2, 15]: 75% | Kill in % after 6 days +AMS [2, 16]: 65% | Kill in % after 6 days +RME [2, 17]: 75% | pest or weed control at 0.8 ppm [2, 14]: 0% | pest or weed control at 4 ppm [2, 18]: 80%

O=C1C=C(N(CCF)Cc2cnc(Cl)c(Cl)c2)CO1 [Compound I-14, 4-{[(5,6-dichloropyrid-3-yl)methyl](2-fluoroethyl)amino}furan-2(5H)-one]
Kill in % after 6 days +AMS + RME [1, 6]: 95% | Kill in % after 6 days +AMS [1, 7]: 60% | Kill in % after 6 days +RME [1, 8]: 95% | pest or weed control at 4 ppm [1, 10]: 25% | Kill in % after 6 days +AMS + RME [2, 11]: 70% | Kill in % after 6 days +AMS [2, 12]: 5% | Kill in % after 6 days +RME [2, 13]: 40% | pest or weed control at 0.8 ppm [2, 14]: 0%

From patent publication US20100173943A1, “INSECTICIDAL COMPOSITIONS WITH IMPROVED ACTION” (BAYER CROPSCIENCE AG, priority 2007, published 2010)
